ChEMBL document CHEMBL1146652, “Synthesis and CB1 receptor activities of novel arachidonyl alcohol derivatives” (Bioorg Med Chem Lett, 2004)

How the values were obtained:
[1] = molecular target: Cannabinoid receptor 1 (Rattus norvegicus) (UniProt P20272); test: Maximal response of cannabinoid receptor to compound was evaluated using [35S]GTP-gamma-S-binding studies; type: functional
Cannabinoid receptor 1 = Cannabinoid receptor 1 (Rattus norvegicus, UniProt P20272); test: Cannabinoid receptor 1 dependent activity of compound was evaluated by using [35S]GTP-gamma-S-binding studies; type: functional
Chain of Cannabinoid receptor 1 (P20272 whole entry): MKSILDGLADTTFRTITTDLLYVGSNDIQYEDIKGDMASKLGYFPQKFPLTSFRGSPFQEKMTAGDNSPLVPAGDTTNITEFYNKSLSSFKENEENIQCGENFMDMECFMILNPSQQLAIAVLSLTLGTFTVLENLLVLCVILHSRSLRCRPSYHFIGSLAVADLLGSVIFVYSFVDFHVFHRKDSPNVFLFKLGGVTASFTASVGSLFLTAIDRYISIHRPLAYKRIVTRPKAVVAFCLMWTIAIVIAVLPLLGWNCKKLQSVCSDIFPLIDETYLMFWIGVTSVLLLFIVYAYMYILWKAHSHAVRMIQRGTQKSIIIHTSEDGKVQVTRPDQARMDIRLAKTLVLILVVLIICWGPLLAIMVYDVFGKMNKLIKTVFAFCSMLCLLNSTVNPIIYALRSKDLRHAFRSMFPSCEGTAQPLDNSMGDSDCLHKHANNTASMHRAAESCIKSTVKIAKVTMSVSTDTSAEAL

Chain of Cannabinoid receptor 1 (Rattus norvegicus) (P20272 whole entry): as above

| Compound | Emax [1] | EC50 (Cannabinoid receptor 1) |
| --- | --- | --- |
| CCCCC/C=C\C/C=C\C/C=C\C/C=C\CCCCOC(=O)[C@H](O)CO | 301% | 25.1 µM |
| CCCCC/C=C\C/C=C\C/C=C\C/C=C\CCCC(=O)NCCO | 380% | – |
| CCCCC/C=C\C/C=C\C/C=C\C/C=C\CCCCOC(=O)[C@@H](O)CO | 278% | 39.8 µM |
